Active and inactive are the calls of the source.
Experiments:
cells [1] = type: functional, cell-based
[2] = molecular target: T1, Mannose-6-phosphate isomerase (Homo sapiens, UniProt P34949); assay: MPI enzyme activity inhibition – biochemical, fluorescence intensity, coupled assay, primary screen (AID 1209)
T1 sequence (P34949 whole entry): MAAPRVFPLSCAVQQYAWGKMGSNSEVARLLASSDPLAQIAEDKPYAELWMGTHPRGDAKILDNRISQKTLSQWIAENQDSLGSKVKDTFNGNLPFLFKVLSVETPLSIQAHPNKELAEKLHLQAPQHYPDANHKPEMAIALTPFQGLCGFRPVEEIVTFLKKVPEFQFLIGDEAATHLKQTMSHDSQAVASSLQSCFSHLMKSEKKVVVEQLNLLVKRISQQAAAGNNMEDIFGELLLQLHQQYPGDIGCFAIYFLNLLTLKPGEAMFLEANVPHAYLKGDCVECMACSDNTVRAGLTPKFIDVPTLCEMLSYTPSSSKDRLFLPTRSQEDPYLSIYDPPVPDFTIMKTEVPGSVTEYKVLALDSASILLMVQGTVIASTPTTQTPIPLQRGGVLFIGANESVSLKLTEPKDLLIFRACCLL

cells [3] = type: functional, cell-based; remark: listed apart in the source
[4] = molecular target: T1, Mannose-6-phosphate isomerase; assay: MPI inhibition at elevated mannose 6-phosphate – biochemical, fluorescence intensity, high mannose 6-phosphate, primary screen (AID 1220)
[5] = molecular target: Intestinal-type alkaline phosphatase (Mus musculus, UniProt P24822); assay: PubChem AID 488874; type: functional
[6] = molecular target: T2, Intestinal-type alkaline phosphatase (Homo sapiens, UniProt P09923); assay: human intestinal alkaline phosphatase activators, dose response, biochemical, luminescence, uHTS hits (AID 463120); type: functional
[7] = molecular target: FAD-linked sulfhydryl oxidase ALR (Homo sapiens, UniProt P55789); assay: ALR-catalysed DTT oxidation blockers – biochemical, H2O2 detection, luminescence, cherry-pick, dose response (AID 493248)
[8] = molecular target: T2, Intestinal-type alkaline phosphatase; assay: activation of human intestinal alkaline phosphatase – biochemical, luminescent, uHTS hits, set 2, dose response (AID 488817); type: functional;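 note: potency of activators that raise enzyme activity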
[9] = molecular target: T3, Alkaline phosphatase, tissue-nonspecific isozyme (Homo sapiens, UniProt P05186); assay: activation of tissue-nonspecific alkaline phosphatase – biochemical, TNAP isozyme, human IAP uHTS hits, selectivity assay for human IAP activator project, dose response (AID 488886); type: functional;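 note: potency of compounds raising TNAP activity as a selectivity check on IAP activators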
T3 sequence (P05186 whole entry): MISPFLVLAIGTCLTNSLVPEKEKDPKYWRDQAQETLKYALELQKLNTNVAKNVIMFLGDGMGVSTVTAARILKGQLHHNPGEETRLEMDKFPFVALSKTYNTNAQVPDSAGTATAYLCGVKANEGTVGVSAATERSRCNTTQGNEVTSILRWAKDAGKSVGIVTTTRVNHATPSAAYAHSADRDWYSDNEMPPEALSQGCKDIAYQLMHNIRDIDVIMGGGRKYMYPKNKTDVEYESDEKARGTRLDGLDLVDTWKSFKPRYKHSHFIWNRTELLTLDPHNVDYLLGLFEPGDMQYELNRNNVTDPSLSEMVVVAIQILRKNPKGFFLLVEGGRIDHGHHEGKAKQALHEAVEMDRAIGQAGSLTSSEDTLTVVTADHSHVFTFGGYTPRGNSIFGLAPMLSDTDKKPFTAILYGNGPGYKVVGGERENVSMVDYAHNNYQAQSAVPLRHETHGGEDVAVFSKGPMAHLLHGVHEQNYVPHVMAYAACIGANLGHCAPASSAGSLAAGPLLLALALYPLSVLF

INS1 = assay: INS-1E survival protection against cytokine death – cell-based, luminescence, retest, dose response (AID 449756); type: functional; settings: Rattus norvegicus;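 note: cell death triggered by IL-1 beta plus TNF-alpha plus IFN-gamma mixture; protective hits raise ATP signal compared with cytokine alone wells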
[10] = molecular target: T4, Rac GTPase-activating protein 1 (Homo sapiens, UniProt Q9H0H5); assay: blockers of MgcRacGAP-driven Rac1 GTP hydrolysis – biochemical, ADP Hunter fluorescence, primary and confirmatory, confirmation (AID 624330); type: functional
T4 sequence (Q9H0H5 whole entry): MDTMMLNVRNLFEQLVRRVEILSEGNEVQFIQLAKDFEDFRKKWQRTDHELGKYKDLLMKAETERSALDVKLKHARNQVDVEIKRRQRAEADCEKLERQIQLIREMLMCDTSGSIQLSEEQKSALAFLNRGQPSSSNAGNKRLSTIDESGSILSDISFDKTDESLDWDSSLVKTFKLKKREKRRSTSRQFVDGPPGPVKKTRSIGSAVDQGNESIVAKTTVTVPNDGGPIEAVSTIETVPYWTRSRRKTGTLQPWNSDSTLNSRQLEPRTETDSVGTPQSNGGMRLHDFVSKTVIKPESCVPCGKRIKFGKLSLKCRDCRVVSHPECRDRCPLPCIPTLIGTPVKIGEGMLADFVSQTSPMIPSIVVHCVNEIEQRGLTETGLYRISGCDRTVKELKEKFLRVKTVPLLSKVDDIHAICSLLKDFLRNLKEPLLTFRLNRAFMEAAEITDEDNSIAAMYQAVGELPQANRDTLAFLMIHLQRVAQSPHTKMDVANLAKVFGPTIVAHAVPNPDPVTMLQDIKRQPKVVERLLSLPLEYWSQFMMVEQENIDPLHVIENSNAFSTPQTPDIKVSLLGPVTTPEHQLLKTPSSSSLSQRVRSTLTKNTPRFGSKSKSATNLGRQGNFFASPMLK

[11] = Trypanosoma cruzi growth suppression in host cells – NIH3T3 host cells, beta-gal luminescence, confirmation (AID 2044); type: functional, cell-based;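 note: intracellular parasites grown in NIH/3T3 mouse fibroblasts as host cells; luminescent beta-galactosidase reporter signal from transgenic T. cruzi replicating inside host cells; inhibitors lower the luminescence signal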
[12] = NIH3T3 cell viability loss – ATP luminescence, mouse fibroblasts, counter-screen, dose response (AID 2010); type: functional, cell-based;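 note: cells exposed to compound for about 90 hours before reading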
cells [13] = assay: cells
Genome polyprotein = Genome polyprotein (Hepatitis C virus, UniProt Q2Q167); assay: disruption of hepatitis C core self-association – biochemical, TR-FRET, dose response (AID 2159); set-up: species or system Hepacivirus hominis;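 note: blocks dimerization of HCV core protein measured by TR-FRET between tagged core106 pairs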
[14] = molecular target: Induced myeloid leukemia cell differentiation protein Mcl-1 (Homo sapiens, UniProt Q07820); type: functional
[15] = molecular target: T5, Carboxy-terminal domain RNA polymerase II polypeptide A small phosphatase 1 (Homo sapiens, UniProt Q9GZU7); assay: CTDSP1 inhibitors, concentration-response, biochemical, absorbance readout, ultra-high-throughput screen actives (AID 540297); type: functional
T5 sequence (Q9GZU7 whole entry): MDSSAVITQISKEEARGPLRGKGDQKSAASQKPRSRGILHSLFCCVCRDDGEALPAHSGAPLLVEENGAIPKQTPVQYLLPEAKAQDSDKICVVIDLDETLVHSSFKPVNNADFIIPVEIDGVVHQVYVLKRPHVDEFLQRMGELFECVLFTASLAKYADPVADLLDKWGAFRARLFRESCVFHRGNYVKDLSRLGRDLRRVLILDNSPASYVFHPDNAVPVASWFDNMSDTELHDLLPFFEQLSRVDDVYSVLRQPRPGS

[16] = M. tuberculosis growth inhibition, HTS (AID 449762); type: functional
[17] = microbe, parasite or virus in culture; type: functional; settings: Mycobacterium tuberculosis
Mu-type opioid receptor = Mu-type opioid receptor (Homo sapiens, UniProt P35372); type: functional, cell-based;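 note: U2OS cells with beta-arrestin recruitment to OPRM1 by beta-gal complementation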
[18] = molecular target: 5-hydroxytryptamine receptor 2A (Mus musculus, UniProt P35363); type: functional, cell-based;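 note: CHO-K1 cells with tagged receptor and beta-arrestin; agonist potency measured as compound-induced activation of the receptor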
[19] = antiviral protection against BTV-induced cell death – arbovirus, BSR cells, confirmation (AID 1250); type: functional;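 note: protection from viral cytopathic effect measured as cell viability by ATP luminescence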
[20] = viability of uninfected HEp-2 cells – cell-based, HTS, cytotoxicity control for RSV inhibitor project, dose response (AID 2410); type: functional; settings: human respiratory syncytial virus
cells [21] = assay: cells; remark: listed apart in the source
Ephrin type-A receptor 4 = Ephrin type-A receptor 4 (Mus musculus, UniProt Q03137); assay: EphA4 ligand-binding antagonists – biochemical, colorimetric, mouse EphA4, primary screen (AID 689); type: functional
[22] = luciferase reporter signal suppression in cells – H4 neuroglioma cells, luminescence, dose response (AID 1990); type: functional, cell-based
[23] = luciferase reporter signal reduction – luminescence, H4-C neuroglioblastoma cells, dose response (AID 2458); type: functional, cell-based;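 note: H4 neuroglioblastoma cells stably carrying a luciferase reporter gene fusion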
cells [24] = type: functional, cell-based; remark: listed apart in the source
[25] = alpha-synuclein stem-loop luciferase translation blockers – H4 neuroglioma cells, luminescence, confirmation (AID 1988); type: functional, cell-based
[26] = Luminescence-based dose response cell-based high throughput screening assay for cytotoxic compounds using the IEC-6 intestinal epithelial cell line. [Related pubchem assays: 1858 (Summary AID.), 1825 (Counterscreen.), 1907 (Confirmation screen.)]; type: functional
[27] = alpha-synuclein stem-loop translation blockers – luminescence, H4 neuroglioblastoma cells, dose confirmation, confirmation (AID 2454); type: functional, cell-based;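 note: H4 neuroglioblastoma cells carrying an alpha-synuclein 5'UTR luciferase reporter; potency for inhibition of the luciferase signal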
[28] = HEK-293T viability loss after treatment – luminescence, T-cell screen hits, cytotoxicity control for TCR NF-kB inhibitor project, dose response (AID 489026); type: functional, cell-based;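 note: cells exposed to compound about 14 hours before the viability readout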
Vero = assay: mammalian cell viability reduction – secondary assay, cytotoxicity control for West Nile virus antiviral project, dose response (AID 1650); type: functional; settings: Chlorocebus sabaeus
Cytochrome P450 2C19 = Cytochrome P450 2C19 (Homo sapiens, UniProt P33261); assay: Cytochrome panel assay with activity outcomes. Panel member name: p450-cyp2c19 Compounds with AC50 equal or less than 10 uM are considered active; type: functional; settings: read-out: AC50
Cytochrome P450 3A4 = Cytochrome P450 3A4 (Homo sapiens, UniProt P08684);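 note: CYP3A4 tested as one member of a cytochrome P450 panel screen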
[29] = Luminescence Cell-Based Dose Response HTS to Identify Inhibitors of 5'UTR Stem-Loop Driven Prion Protein mRNA Translation in H4 Neuroglioblastoma Cells. [Related pubchem assays: 1827 (Project Summary), 1813 (Primary HTS)]; type: functional
[30] = HEK-293T cell viability reduction – luminescence, B-cell screen hits, cytotoxicity control for BCR NF-kB inhibitor project, dose response (AID 489021); type: functional, cell-based;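 note: HEK-293T cells carrying an NF-kB luciferase reporter; cells exposed to compound for about 14 hours before viability readout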
H9c2 = assay: cells; type: functional, cell-based; settings: Rattus norvegicus, H9c2, Myocardium;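 note: confirmatory concentration-response retest of ultra-high-throughput screening hits for modulation of myocardial damage; cell death induced by hydrogen peroxide oxidative stress; compound pretreatment for 60 min then peroxide exposure for 2 h; potency is for protecting the cells against peroxide damage rather than for killing them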

Genome polyprotein, sequence (Q2Q167 whole entry): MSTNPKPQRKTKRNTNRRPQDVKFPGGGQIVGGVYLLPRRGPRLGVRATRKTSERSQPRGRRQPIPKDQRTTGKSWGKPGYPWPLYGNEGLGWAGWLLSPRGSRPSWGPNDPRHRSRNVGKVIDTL
T2 sequence (P09923 whole entry): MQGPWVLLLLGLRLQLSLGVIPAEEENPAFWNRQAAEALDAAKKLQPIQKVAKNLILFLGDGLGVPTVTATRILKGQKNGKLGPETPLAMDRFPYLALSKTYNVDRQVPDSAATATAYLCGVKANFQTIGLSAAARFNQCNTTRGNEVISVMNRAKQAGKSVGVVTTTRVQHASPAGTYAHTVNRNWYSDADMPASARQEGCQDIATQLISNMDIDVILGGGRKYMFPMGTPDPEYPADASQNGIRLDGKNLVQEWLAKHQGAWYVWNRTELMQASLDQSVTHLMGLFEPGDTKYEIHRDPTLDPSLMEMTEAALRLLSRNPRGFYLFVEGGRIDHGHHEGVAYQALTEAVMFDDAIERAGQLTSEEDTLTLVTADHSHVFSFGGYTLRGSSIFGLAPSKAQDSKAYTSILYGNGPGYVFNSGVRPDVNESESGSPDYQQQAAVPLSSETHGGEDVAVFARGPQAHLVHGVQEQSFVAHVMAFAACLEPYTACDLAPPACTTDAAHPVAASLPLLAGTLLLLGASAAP
Cytochrome P450 2C19, sequence (P33261 whole entry): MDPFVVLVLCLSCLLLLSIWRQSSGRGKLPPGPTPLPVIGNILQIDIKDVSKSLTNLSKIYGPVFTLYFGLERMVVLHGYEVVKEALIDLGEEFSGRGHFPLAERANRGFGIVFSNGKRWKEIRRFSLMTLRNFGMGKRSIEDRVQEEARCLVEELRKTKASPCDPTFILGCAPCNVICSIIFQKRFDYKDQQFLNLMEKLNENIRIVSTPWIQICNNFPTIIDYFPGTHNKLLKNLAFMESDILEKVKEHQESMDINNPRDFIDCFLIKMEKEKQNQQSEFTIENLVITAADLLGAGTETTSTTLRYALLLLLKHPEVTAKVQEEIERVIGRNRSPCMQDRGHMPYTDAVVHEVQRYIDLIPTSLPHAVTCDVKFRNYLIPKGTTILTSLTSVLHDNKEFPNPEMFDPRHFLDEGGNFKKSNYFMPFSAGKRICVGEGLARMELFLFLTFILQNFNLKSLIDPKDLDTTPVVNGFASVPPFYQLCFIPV
FAD-linked sulfhydryl oxidase ALR, sequence (P55789 whole entry): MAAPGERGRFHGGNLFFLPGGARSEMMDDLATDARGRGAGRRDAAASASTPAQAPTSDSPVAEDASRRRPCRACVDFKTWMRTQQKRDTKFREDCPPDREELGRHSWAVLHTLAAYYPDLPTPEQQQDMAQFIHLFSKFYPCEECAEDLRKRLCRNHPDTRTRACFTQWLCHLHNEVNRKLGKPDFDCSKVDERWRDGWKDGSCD
Induced myeloid leukemia cell differentiation protein Mcl-1, sequence (Q07820 whole entry, the tested form may be a part): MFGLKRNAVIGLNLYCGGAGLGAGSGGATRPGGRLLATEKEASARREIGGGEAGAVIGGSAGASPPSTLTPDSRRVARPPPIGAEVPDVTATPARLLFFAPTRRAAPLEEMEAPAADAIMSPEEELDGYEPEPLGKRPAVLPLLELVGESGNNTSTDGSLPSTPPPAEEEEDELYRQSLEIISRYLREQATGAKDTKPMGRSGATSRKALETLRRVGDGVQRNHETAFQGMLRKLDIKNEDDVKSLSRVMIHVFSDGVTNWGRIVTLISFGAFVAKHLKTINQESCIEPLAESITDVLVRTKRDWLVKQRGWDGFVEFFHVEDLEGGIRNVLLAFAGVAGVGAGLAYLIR
Intestinal-type alkaline phosphatase (Mus musculus, UniProt P24822), sequence (P24822 whole entry): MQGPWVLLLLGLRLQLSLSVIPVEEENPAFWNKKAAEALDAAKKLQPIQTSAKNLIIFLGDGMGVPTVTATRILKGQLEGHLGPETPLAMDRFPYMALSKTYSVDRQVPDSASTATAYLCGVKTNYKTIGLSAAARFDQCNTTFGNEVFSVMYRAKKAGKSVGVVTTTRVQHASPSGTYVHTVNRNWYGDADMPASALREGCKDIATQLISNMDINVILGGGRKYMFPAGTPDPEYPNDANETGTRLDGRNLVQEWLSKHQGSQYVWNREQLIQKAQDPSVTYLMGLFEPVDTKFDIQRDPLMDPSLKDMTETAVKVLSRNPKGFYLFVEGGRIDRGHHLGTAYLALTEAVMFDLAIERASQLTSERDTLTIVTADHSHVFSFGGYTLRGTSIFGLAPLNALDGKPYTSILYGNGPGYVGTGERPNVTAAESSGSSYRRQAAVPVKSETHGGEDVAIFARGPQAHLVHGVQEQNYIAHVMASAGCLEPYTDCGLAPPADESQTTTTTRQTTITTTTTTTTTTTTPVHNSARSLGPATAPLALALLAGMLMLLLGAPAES
Mu-type opioid receptor, sequence (P35372 whole entry): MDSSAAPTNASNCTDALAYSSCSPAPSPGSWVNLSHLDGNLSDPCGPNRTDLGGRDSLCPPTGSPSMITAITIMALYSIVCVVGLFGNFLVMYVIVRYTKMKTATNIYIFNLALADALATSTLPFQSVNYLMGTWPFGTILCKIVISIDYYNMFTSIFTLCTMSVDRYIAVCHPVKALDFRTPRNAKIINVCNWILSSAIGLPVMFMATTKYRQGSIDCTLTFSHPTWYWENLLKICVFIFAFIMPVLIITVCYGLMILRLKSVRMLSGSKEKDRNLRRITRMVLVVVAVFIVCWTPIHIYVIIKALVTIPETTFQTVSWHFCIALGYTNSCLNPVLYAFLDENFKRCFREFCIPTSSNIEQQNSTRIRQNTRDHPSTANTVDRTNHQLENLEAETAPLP
Ephrin type-A receptor 4, sequence (Q03137 whole entry): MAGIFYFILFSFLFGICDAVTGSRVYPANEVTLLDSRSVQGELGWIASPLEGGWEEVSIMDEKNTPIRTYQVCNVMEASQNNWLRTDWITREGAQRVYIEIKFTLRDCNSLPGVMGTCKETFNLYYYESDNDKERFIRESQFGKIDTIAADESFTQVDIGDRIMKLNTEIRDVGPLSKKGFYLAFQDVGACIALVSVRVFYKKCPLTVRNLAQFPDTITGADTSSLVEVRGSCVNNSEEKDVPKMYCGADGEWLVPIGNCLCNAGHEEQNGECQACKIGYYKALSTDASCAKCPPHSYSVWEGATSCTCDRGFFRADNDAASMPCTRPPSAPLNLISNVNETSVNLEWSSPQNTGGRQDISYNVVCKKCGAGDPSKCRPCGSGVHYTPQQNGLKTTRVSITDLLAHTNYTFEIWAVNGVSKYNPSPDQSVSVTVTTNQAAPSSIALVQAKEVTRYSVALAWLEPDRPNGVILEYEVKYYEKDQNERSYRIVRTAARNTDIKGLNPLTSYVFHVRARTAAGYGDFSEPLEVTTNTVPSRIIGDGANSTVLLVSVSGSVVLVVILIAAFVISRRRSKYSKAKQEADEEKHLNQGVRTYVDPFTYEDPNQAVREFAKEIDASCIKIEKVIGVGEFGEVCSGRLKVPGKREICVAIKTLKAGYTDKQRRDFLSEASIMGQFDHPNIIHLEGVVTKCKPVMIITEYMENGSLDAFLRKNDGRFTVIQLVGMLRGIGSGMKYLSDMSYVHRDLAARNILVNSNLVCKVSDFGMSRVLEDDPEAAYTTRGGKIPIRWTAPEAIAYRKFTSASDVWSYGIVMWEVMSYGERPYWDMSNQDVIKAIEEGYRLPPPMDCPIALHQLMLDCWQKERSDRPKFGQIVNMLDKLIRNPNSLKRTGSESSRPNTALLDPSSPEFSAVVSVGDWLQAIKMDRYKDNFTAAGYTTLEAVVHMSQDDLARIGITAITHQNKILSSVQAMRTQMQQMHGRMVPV
5-hydroxytryptamine receptor 2A, sequence (P35363 whole entry): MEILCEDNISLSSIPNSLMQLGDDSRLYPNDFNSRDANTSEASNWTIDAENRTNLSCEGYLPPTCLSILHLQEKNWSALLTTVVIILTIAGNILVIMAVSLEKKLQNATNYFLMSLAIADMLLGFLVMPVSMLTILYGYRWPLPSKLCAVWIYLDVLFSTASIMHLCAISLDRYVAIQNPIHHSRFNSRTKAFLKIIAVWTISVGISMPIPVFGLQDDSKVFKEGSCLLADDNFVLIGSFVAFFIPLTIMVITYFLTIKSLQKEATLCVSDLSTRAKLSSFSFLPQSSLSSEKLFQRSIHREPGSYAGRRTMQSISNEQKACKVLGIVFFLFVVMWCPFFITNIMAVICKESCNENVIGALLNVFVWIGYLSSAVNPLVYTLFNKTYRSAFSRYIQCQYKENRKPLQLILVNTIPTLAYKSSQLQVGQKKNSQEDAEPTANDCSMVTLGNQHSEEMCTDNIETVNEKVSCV
Cytochrome P450 3A4, sequence (P08684 whole entry): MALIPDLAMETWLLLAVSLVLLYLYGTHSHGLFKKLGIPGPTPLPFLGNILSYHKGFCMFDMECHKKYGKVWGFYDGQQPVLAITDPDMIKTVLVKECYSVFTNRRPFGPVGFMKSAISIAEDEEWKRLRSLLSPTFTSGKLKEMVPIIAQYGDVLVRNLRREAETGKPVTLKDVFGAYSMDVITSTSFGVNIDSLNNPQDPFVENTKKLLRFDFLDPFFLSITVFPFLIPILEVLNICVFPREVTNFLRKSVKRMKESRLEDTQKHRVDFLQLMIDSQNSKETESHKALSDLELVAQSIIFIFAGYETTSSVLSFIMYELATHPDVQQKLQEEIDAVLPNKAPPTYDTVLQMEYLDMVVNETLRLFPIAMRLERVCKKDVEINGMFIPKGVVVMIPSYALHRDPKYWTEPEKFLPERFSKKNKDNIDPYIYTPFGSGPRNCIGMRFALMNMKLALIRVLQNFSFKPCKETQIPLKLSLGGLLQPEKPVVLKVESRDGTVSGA

CCn1c(C)nc2cc(C(=O)N/N=C/c3cccc(O)c3O)ccc21
EC50 (cells [1]): 10.9 µM (active)
IC50 [2]: > 50 µM (not active)
EC50 (cells [3]): > 350 µM (not active)
IC50 [4]: > 50 µM (not active)
IC50 [5]: 44 µM (active)
EC50 [6]: 6.34 µM (active)
AC50 [7]: 3.82 µM (active)
EC50 [8]: 9.71 µM (active)
EC50 [9]: 11 µM (active)
AC50 (INS1): 2.79 µM (active)
IC50 [10]: 119 µM (active)

CN(C)CCCCCN(C)Cc1cc2ccccc2o1
EC50 [11]: < 0.1 µM (active)
EC50 [12]: 16.4 µM (active)
EC50 (cells [13]): 0.025 µM (active)

Cc1cc(C)n2c(SC/C(O)=C(\C#N)c3nc4ccccc4[nH]3)nnc2n1
IC50 (Genome polyprotein): > 49.8 µM (not active)
IC50 [14]: 1.15 µM (active)
IC50 [15]: 5.01 µM (active)

CC(C)C[C@H]1C(=O)N2CCC[C@H]2[C@]2(O)O[C@](NC(=O)C3C=C4c5cccc6[nH]c(Br)c(c56)C[C@H]4N(C)C3)(C(C)C)C(=O)N12 (stereo not given in full)
IC50 [16]: > 100 µM (active)
CC50 [17]: > 40 µM (active)
EC50 (Mu-type opioid receptor): 92.5 µM (inactive)
EC50 [18]: 0.0038 µM (active)

COCCn1c(-c2ccccc2)cnc1SCC(=O)Nc1cccc2ccccc12
IC50 [19]: 27.4 µM (active)

CCC(C)[C@H](NC(=O)OC(C)(C)C)C(=O)N/N=C/c1ccc2cc(OC)ccc2n1 (stereo not given in full)
CC50 [20]: 36.2 µM (active)
IC50 (cells [21]): 39 µM (active)

Nc1ccc(Br)c2c1C(=O)c1ccccc1C2=O
IC50 (Ephrin type-A receptor 4): 13.5 µM (active)

CCCCCC(=O)N[C@@H](c1ccccc1)[C@@H](O)C(=O)O[C@H]1C[C@@]2(O)[C@@H](OC(=O)c3ccccc3)C3[C@](C)(C(=O)[C@H](OC(C)=O)C(=C1C)C2(C)C)[C@@H](O)C[C@H]1OC[C@@]31OC(C)=O (stereo not given in full)
EC50 [22]: < 0.1 µM (active)
EC50 [23]: 0.229 µM (active)
EC50 (cells [24]): 0.253 µM (active)
EC50 [25]: < 0.1 µM (active)
IC50 [26]: 0.0618 µM (active)
EC50 [27]: 0.402 µM (active)
IC50 [28]: > 80 µM (inactive)

CN1CCN(CC(C)(C)NS(=O)(=O)c2ccc(Cl)cc2)CC1
EC50 [11]: < 0.1 µM (active)
EC50 [12]: > 60 µM (not active)
EC50 (cells [13]): 0.203 µM (active)

Cc1ccc(-c2cc(C(F)F)n3ncc(C(=O)Nc4c(C)nn(Cc5c(Cl)cccc5Cl)c4C)c3n2)cc1
CC50 (Vero): > 100 µM (active)
AC50 (Cytochrome P450 2C19): 7.94 µM (inconclusive)
AC50 (Cytochrome P450 3A4): inconclusive

CCOc1ccc(-c2cc(CCCC(=O)NCc3ccco3)no2)cc1
EC50 [22]: 14.5 µM (active)
EC50 [23]: 1.22 µM (active)
EC50 (cells [24]): 2.78 µM (active)
EC50 [29]: 17.4 µM (active)
EC50 [25]: < 0.1 µM (active)
EC50 [27]: 1.87 µM (active)
IC50 [30]: > 80 µM (inactive)

COc1ccccc1NC(=O)COc1cccc2c1CCNC2=O
CC50 [20]: 39.1 µM (active)
IC50 (H9c2): 8.7 µM (active)
IC50 (cells [21]): 28.8 µM (active)

Cc1cc(C(=O)N/N=C2\CC(=O)c3ccccc32)c(C)n1-c1ccc(F)cc1
IC50 (Genome polyprotein): > 49.8 µM (not active)

CCc1cc(C(=O)O)c(NC(=O)c2cc(OC)c(OC)c(OC)c2)s1
IC50 [19]: 29.2 µM (active)
